Where two headings read alike, the source gives them in different places.
Experiments:
[1] = system: HEL cells; assay: Cell viability assay (CellTiter-Glo), HEL cells; assay type: cell-based; conditions: Homo sapiens, 96 h
Protocol: (§1) Multiple myeloma, leukaemia, and murine cell lines:
(§2) Cells were seeded in 96-well plates with media containing indicated concentrations of respective compounds and plates were incubated at 37 °C for 96 hours. Readout was performed with CellTiter-Glo® Luminescent Cell Viability Assay (Promega) according to the manufacturer’s protocol and luminescence was measured with POLARStar Omega plate reader (BMG LabTech). All results were normalized to non-treated conditions and data represent mean ±SD of biological triplicates. […]
(§3) Dose response curves were modeled and plotted by using GraphPad Prism software (GraphPad Software). Statistical analysis was performed using GraphPad Prism software (GraphPad Software).
(§4) Variance of biological replicates is represented as the standard error of the mean (SEM) or as the […]

[2] = system: MDA-MB-231 cells; assay: Cell viability assay (CellTiter-Glo), MDA-MB-231 breast cancer cells; assay type: cell-based, human; conditions: 96 h
Protocol: Breast cancer cell lines:
To access the compound effect on cell viability, cells were plated in 384-well tissue culture-treated plates (Greiner Bio One). Twenty-four hours later, tested compounds were added into culture to the desired concentrations. Cell viability was measured by using CellTiter-Glo® Luminescent Cell Viability Assay (Promega) at day 4 or day 7 post-treatment and normalized by non-treated controls. […]
as §3, §4

[3] = system: MDA-MB-231 cells; assay: Cell migration (wound-healing) assay; assay type: cell-based, human; conditions: 0.1 μM, 24 h post-scratch
Protocol: In total 800.000 MDA-MB-231 breast cancer cells were seeded on uncoated 24-well plates (Starlab).
After 24 h DMEM medium (Pan Biotech) was removed, wells were washed twice with PBS and incubated with 0.1 µM palbociclib, 0.1 µM 34, 0.1 µM VH298 or DMSO in fresh FCS-free medium.
After 24 h of incubation, a scratch was conducted with a 100 µL pipette tip (Starlab), medium was removed, wells were washed twice with PBS and again incubated with fresh FCS-free medium containing the compounds at the aforementioned concentrations. Wound healing was observed microscopically for 24 h with 10-fold magnification (Axiovert 100, Zeiss, Germany). Migration speed was quantified according to the reduced scratch wound area over time.
as §3, §4

[4] = molecular target: T1, CDK6 (Homo sapiens, UniProt Q00534); assay: CDK6 degradation, western blot of MM.1S cells; assay type: cell-based; conditions: for remaining activity at 0.1 µM / remaining activity at 1 µM: read-out: D CDK6: remaining CDK6 levels; for Time CDK6 degradation persists (CDK6 protein below 50%) after drug washout: 0.1 μM for 16 h, then washout with PBS; for Persistence of CDK6 degradation after single drug exposure (long-term treatment): no washout
T1 construct: Percentage values are normalized to DMSO-treated MM.1S cells and the respective loading controls; endogenous in cells; host or cells: MM.1S (human multiple myeloma)
Excerpt: (§5) We determined the concentration of both kinases and CRBN, the latter in order to control the expression of the corresponding ligase. Since IMiDs, such as pomalidomide, cause the degradation of the lymphoid transcription factors Ikaros (IKZF1) and Aiolos (IKZF3) through the involvement of CRBN,[53],[54] this undesired effect was inspected. […] As further characteristics of CDK4/6d, the desired selectivity of CDK6 over CDK4 degradation and the unwanted influence on the IKZF1 concentration were determined. […] Next, we determined the concentration- and time-dependent activity of 11 (Fig. S2, ESI ^†).
as §1
(§6) After respective designated treatments, cells were washed with 1× PBS and lysed in IP lysis buffer (Pierce) containing HALT protease and phosphatase inhibitor cocktail (Thermo Scientific). Sodium dodecyl sulfate-polyacrylamide gel electrophoresis (SDS-PAGE) was performed with 5–20 µg of protein loaded per sample. Gel electrophoresis was carried out at a constant voltage. Proteins were transferred onto Immobilon-P transfer membranes (Millipore). Membranes were blocked with 5% milk in Tris Buffered Saline with 0.05% Tween 20 (TBS-T) followed by overnight incubation at 4 °C with shaking in primary antibodies diluted in 5% BSA in TBS-T. After incubation with respective secondary HRP-conjugated antibodies diluted in 5% milk in TBST, detection of proteins was performed using either WesternBright ECL HRP substrate or WesternBright Sirius HRP substrate (Advansta). Chemiluminescence was detected with ChemiDoc™ XRS+ System (Bio-Rad). For further detection of other proteins on the same membrane, membranes were subjected to incubation in Restore Western Blot Stripping Buffer, followed by re-blocking, and further probing of proteins was […]

[5] = molecular target: T2, CDK4 (Homo sapiens, UniProt P11802); assay: CDK4 degradation, western blot of MM.1S cells; assay type: cell-based; conditions: 16 h; for remaining activity at 0.1 µM: MM1.S, read-out: D CDK4: remaining CDK4 levels
T2 construct: Percentage values are normalized to DMSO-treated MM.1S cells and the respective loading controls; endogenous in cells; host or cells: MM.1S (human multiple myeloma)
Excerpt: as §5, §1, §6

[6] = system: MM.1S, LP-1, AMO-1, MOLM-13, HEL, KG-1, K562, Nalm-6; assay: Cell viability assay (CellTiter-Glo), multiple myeloma and leukemia cell lines; assay type: cell-based, human; conditions: 96 h, 0.1 or 1 μM; for Effect on cell proliferation: MM.1S, LP-1, AMO-1, MOLM-13, HEL, KG-1, K562, Nalm-6
Protocol: as §1, §2, §3, §4

[7] = elog D7.4 by chromatographic (HPLC) method; assay type: physicochemical; conditions: Polaris C18-A column, pH 7.4, read-out: elog D7.4 (experimental distribution coefficient at pH 7.4)
Protocol: Supplementary Information: Physical Chemistry
N. Molecular Descriptor Calculation […]
O. Physicochemical Measurements
The determination of the elog D7.4 values was performed by a chromatographic method according to […]
The column was a Polaris C18-A column (2 mm I.D., 50 mm length, 3 μm particle size) from Agilent Technologies. A linear mobile phase gradient was applied with […] TRIS buffer adjusted to pH 7.4 and MeCN. Therefore, the gradient was run from 5% […]
between the runs with a constant flow-rate of 0.8 ml/min and a temperature of 25 °C. The output wavelength of the detector was set to 269.5 nm. In order to calibrate the log D7.4 to the retention time, 6 different drugs with known log D7.4 were dissolved in DMSO and 10 µl were injected […]
Approximately 1 mg of the samples was dissolved in DMSO and 5 µl were injected. Analyses were conducted in duplicates. Subsequently, the mean retention times of the analytes were taken to calculate their log D7.4 values with aid of the calibration line.

[8] = Susceptibility to hydrolysis in buffer, LC/MS; assay type: physicochemical; conditions: buffer pH 1, 24 h, 37 °C
Protocol: Next, we investigated the persistence of CDK6 degradation after single drug exposure. […] The differences were even more pronounced when conducting a drug washout-step, showing that while BSJ-03-123 kept CDK6 protein below 50% for a maximum of 6 h, CDK6 degradation mediated by PROTACs 27 and 34 was more persistent and stable for up to 72 h (Fig. 4E and S10, ESI ^†). […] Since these degraders mainly differ in the ligase-binding part, we hypothesized that the deviations in the long-term experiments (Fig. 5A) are due to chemical inactivation of the CRBN ligand. We then tested compounds 27, 34 (VHL-based) and BSJ-03-123 (8, CRBN-based) for susceptibility to hydrolysis. These PROTACs were incubated in two different buffers for 24 h at 37 °C and aliquots were analysed by LC/MS.
Fig. 5 (A) Quantification of long-term treatment experiments (see Fig. S9, ESI ^†) and (B) drug stability data at pH 1 and pH 7.4. Acetonitrile solutions of the PROTACs were mixed with two different buffers and incubated for 24 hours at 37 °C. Subsequently, aliquots were analysed by LC/MS and normalized to acetonitrile solutions.

[9] = MM1.S, 0.1 μM, 16 h, MM.1S cells, normalized to DMSO (100%)
[10] = MM1.S, 1 μM, 16 h, MM.1S cells, normalized to DMSO (100%)
[11] = 0.1 μM, MM.1S cells, normalized to DMSO (100%)

T1 sequence (Q00534 whole entry): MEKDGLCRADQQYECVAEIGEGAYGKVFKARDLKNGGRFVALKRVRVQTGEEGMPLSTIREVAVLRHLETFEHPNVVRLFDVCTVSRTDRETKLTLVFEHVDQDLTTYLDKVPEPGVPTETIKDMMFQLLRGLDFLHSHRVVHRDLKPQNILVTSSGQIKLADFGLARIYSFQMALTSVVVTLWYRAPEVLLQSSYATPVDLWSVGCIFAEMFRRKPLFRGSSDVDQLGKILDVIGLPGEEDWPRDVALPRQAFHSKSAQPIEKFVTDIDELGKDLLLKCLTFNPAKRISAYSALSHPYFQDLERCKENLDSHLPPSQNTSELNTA
T2 sequence (P11802 whole entry): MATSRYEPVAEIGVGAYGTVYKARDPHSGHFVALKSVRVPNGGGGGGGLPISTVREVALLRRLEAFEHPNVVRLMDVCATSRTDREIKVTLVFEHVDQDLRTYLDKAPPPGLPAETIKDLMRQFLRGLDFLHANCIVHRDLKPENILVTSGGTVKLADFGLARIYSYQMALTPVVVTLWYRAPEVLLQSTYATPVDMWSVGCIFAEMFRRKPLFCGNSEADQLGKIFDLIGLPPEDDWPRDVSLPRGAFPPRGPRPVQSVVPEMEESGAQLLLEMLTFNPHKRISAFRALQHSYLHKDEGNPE

SMILES | IC50 ([2]; Homo sapiens) [nM] | Selectivity ratio D CDK4/D CDK6 for the degradation of CDK6 over CDK4 ([4]; 0.1 μM, 16 h, MM.1S cells) | remaining activity at 0.1 µM [4, 9] [%] | remaining activity at 1 µM [4, 10] [%] | Dmax ([4]; MM1.S, MM.1S cells, 16 h, at a concentration as low as 100 nM, read-out: Dmax: maximum of CDK6 degradation) [%] | Time CDK6 degradation persists (CDK6 protein below 50%) after drug washout ([4]; MM.1S cells) | DC50 ([4]; MM.1S cells, 16 h, 1 μM value excluded (hook effect)) [nM] | chromatographic logD [7] | Stability to hydrolysis at pH 1 [8] | remaining activity at 0.1 µM [5, 11] [%] | DC50 ([5]; MM.1S cells) [nM] | IC50 [1] [nM] | Reduction of wound healing [3] | remaining activity at 0.1 µM ([4]; MM1.S, 16 h) [%] | remaining activity at 0.1 µM [5] [%] | Effect on cell proliferation [6] | Persistence of CDK6 degradation after single drug exposure (long-term treatment) ([4]; MM.1S cells) | Inhibitory activity on cell viability relative to palbociclib [2] | Cell viability compared with palbociclib, VHL-series PROTACs and IAP ligand 5 ([6]; MM.1S and Nalm-6 cells) | remaining activity at 1 µM ([4]; MM1.S, 16 h) [%]
Cc1ncsc1-c1ccc(CNC(=O)[C@@H]2C[C@@H](O)CN2C(=O)[C@@H](NC(=O)C2(C#N)CC2)C(C)(C)C)cc1 [4 (VH298), VH298, reference compound] | – | – | – | – | – | – | – | – | – | – | – | – | did not affect the ability of MDA-MB-231 cells to migrate | > 95 | > 95 | – | – | – | – | –
CC(=O)c1c(C)c2cnc(Nc3ccc(N4CCN(CCOCCOCCOc5cc(-c6scnc6C)ccc5CNC(=O)[C@@H]5C[C@@H](O)CN5C(=O)[C@@H](NC(=O)C5(F)CC5)C(C)(C)C)CC4)cn3)nc2n(C2CCCC2)c1=O [34 (CST651)] | – | 31 | 1.4 | 8.5 | > 95 | up to 72 h | 5.1 | 3.1 | stable | 44 | 20 | 450 | 29% | – | – | inhibited cell proliferation | satisfactory CDK6 level suppression even after 96 h | inhibitory activity comparable to palbociclib | – | –
CN[C@@H](C)C(=O)N[C@H](C(=O)N1C[C@@H](Oc2cccc(OCCOCCOCCOCCN3CCN(c4ccc(Nc5ncc6c(C)c(C(C)=O)c(=O)n(C7CCCC7)c6n5)nc4)CC3)c2)C[C@H]1C(=O)N[C@@H]1CCCc2ccccc21)C1CCCCC1 [compound 35] | – | – | – | – | – | – | – | 4.3 | – | – | – | – | – | 75 | 77 | – | – | – | more strongly impaired | 18

Continued, in another order:

IC50 ([2]; Homo sapiens) [nM] | Selectivity ratio D CDK4/D CDK6 for the degradation of CDK6 over CDK4 ([4]; 0.1 μM, 16 h, MM.1S cells) | remaining activity at 0.1 µM [4, 9] [%] | remaining activity at 1 µM [4, 10] [%] | Dmax ([4]; MM1.S, MM.1S cells, 16 h, at a concentration as low as 100 nM, read-out: Dmax: maximum of CDK6 degradation) [%] | Time CDK6 degradation persists (CDK6 protein below 50%) after drug washout ([4]; MM.1S cells) | DC50 ([4]; MM.1S cells, 16 h, 1 μM value excluded (hook effect)) [nM] | chromatographic logD [7] | Stability to hydrolysis at pH 1 [8] | remaining activity at 0.1 µM [5, 11] [%] | DC50 ([5]; MM.1S cells) [nM] | SMILES | IC50 [1] [nM] | Reduction of wound healing [3] | remaining activity at 0.1 µM ([4]; MM1.S, 16 h) [%] | remaining activity at 0.1 µM [5] [%] | Effect on cell proliferation [6] | Persistence of CDK6 degradation after single drug exposure (long-term treatment) ([4]; MM.1S cells) | Inhibitory activity on cell viability relative to palbociclib [2] | Cell viability compared with palbociclib, VHL-series PROTACs and IAP ligand 5 ([6]; MM.1S and Nalm-6 cells) | remaining activity at 1 µM ([4]; MM1.S, 16 h) [%]
260 | – | – | – | – | – | – | – | – | – | – | CC(=O)c1c(C)c2cnc(Nc3ccc(N4CCNCC4)cn3)nc2n(C2CCCC2)c1=O [palbociclib, reference compound] | 4160 | 17% | – | – | – | – | – | – | –
– | 19 | 1.7 | 15 | – | up to 72 h | – | 2.9 | stable | 33 | – | CC(=O)c1c(C)c2cnc(Nc3ccc(N4CCN(CCOCCOCCOCC(=O)N[C@H](C(=O)N5C[C@H](O)C[C@H]5C(=O)N[C@@H](C)c5ccc(-c6scnc6C)cc5)C(C)(C)C)CC4)cn3)nc2n(C2CCCC2)c1=O [27 (CST620)] | 1540 | – | – | – | inhibited cell proliferation | satisfactory CDK6 level suppression even after 96 h | inhibitory activity comparable to palbociclib | – | –

Source: publication PMC7552917, “Systematic exploration of different E3 ubiquitin ligases: an approach towards potent and selective CDK6 degraders” (Chemical Science, 2020)
